Here are results for 2 compounds from patent US20030125569A1, “Use of packing strip as a holographic data carrier” (priority 2002, published 2003).

Data set [1] can be described thus: Estimated water content of crystalline forms after exposure to an atmosphere of defined relative humidity. It counts as physicochemical. The following applies: (3R,5S)-enantiomer; form obtained from Form E by exposure to defined relative humidity (A: 0 to 20%; B1/B2: 20 to 55%; C: 75%; D: 90%); monosodium salt. On the procedure:
The preparation of crystalline polymorphic Forms A, B1, B2, C and D is usually carried out by using Form E as the starting compound and by exposing Form E to an atmosphere having a defined relative humidity. Depending on the relative humidity used the different forms can be obtained.
Form E of Fluvastatin sodium ((3R,5S)-enantiomer) is first exposed to an atmosphere having a relative humidity of 90% for about 4 hours and subsequently to an atmosphere of 0 to 20% for about 90 minutes. This treatment leads to Form A of the (3R,5S)-enantiomer with an estimated water content of 0 to 5%. The above treatment can be carried out in an X-ray diffractometer in which the relative humidity of the atmosphere can be controlled during the measurement. X-ray powder diffraction studies show the product to be polymorphic Form A (see FIG. 1).
Form E of Fluvastatin sodium ((3R,5S)-enantiomer) is first exposed to an atmosphere having a relative humidity of 90% for about 4 hours and subsequently to an atmosphere of 20 to 55% for about 3 hours. This treatment leads to either Form B1 or Form B2 of the (3R,5S)-enantiomer with an estimated water content of 5 to 15%. The above treatment can be carried out in an X-ray diffractometer in which the relative humidity of the atmosphere can be controlled during the measurement. […]

For data set [2], the target named is T1, 3-hydroxy-3-methylglutaryl coenzyme A (HMG-CoA) (Homo sapiens, UniProt P04035).
T1 sequence (P04035 1-888): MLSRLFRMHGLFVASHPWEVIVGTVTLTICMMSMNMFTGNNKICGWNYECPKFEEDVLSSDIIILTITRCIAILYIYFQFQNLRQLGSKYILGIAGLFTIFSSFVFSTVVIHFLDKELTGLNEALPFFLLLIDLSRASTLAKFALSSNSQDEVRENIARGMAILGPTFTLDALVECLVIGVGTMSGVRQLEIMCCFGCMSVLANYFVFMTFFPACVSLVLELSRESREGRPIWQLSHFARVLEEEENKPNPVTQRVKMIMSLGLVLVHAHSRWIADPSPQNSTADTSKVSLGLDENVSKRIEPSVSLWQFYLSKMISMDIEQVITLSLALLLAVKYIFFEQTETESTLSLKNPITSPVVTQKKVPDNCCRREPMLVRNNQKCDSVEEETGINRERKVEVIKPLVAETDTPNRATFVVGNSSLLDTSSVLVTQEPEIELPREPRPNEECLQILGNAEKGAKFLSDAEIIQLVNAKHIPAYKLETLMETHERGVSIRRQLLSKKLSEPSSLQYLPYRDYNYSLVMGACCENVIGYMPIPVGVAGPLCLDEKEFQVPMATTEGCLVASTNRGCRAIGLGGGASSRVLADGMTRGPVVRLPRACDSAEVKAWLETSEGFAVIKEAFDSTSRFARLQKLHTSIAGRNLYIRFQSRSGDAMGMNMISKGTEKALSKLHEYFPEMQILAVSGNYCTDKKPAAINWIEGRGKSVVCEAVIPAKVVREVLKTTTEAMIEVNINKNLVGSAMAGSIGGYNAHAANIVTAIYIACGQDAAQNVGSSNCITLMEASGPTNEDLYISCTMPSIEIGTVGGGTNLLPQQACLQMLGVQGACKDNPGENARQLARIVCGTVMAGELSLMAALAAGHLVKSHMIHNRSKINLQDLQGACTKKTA
The following applies: O. Tempkin et al., Tetrahedron 1997, vol. 53, pages 10659-10670; cited from earlier work.

Consider `CC(C)n1c(/C=C/[C@@H](O)C[C@@H](O)CC(=O)[O-])c(-c2ccc(F)cc2)c2ccccc21.[Na+]` (single isomer, unassigned) [Form D, (3R,5S)- or (3S,5R)-7-(3-(4-fluorophenyl)-1-(1-methylethyl)-1H-indol-2-yl)-3,5-dihydroxy-6-heptenoic acid monosodium salt], for which the estimated water content in data set [1] is on record as 30%.

For `CC(C)n1c(/C=C/[C@@H](O)C[C@@H](O)CC(=O)[O-])c(-c2ccc(F)cc2)c2ccccc21.[Na+]` (single isomer, unassigned; enantiomer 7) [(3R,5S)-enantiomer, 7-(3-(4-fluorophenyl)-1-(1-methylethyl)-1H-indol-2-yl)-3,5-dihydroxy-6-heptenoic acid monosodium salt], in data set [2], the “biological potency among enantiomers” value is listed as “biologically most potent enantiomer”.
